Laboratory results published in US9227960B2, “Bisaryl (thio)morpholine derivatives as S1P modulators” (ABBVIE B.V., priority 2010, dated 2016).
Structures can show the parent of a compound that is named as a salt.

Columns and labels:
human S1P5 receptor = molecular target: T1, human S1P5 receptor (Homo sapiens, UniProt Q9H228); assay: In vitro functional activity (agonism) on human S1P5 receptors, CHO-human-S1P5-Aequorin assay; format: cell-based; details: CHO-human-S1P5-Aequorin cells, luminescence, read-out: S1P5 pEC50 (converted)
T1 construct: host or cells: CHO (AequoScreen recombinant cell line, co-expressing mitochondrially targeted apo-Aequorin)
Excerpt: In Vitro Functional Activity (Agonism) on Human S1P5 Receptors
(§1) The CHO-human-S1P5-Aecorin assay was bought from Euroscreen, Brussels (Euroscreen, Technical dossier, Human Lysophospholid S1P5 (Edg8) receptor, DNA clone and CHO AequoScreen™ recombinant cell-line, catalog no: ES-593-A, September 2006). Human-S1P5-Aequorin cells express mitochondrial targeted apo-Aequorin. Cells have to be loaded with coelanterazine, in order to reconstitute active Aequorin. After binding of agonists to the human S1P5 receptor the intracellular calcium concentration increases and binding of calcium to the apo-Aequorin/coelenterazine complex leads to an oxidation reaction of coelenterazine, which results in the production of apo-Aequorin, coelenteramide, CO2 and light (λmax 469 nm). This luminescent response is dependent on the agonist concentration. Luminescence is measured using the MicroBeta Jet (Perkin Elmer). Agonistic effects of compounds are expressed as pEC50. Compounds were tested at a 10 points half log concentration range, and 3 independent experiments were performed in single point's measurements.

human S1P3 receptor = molecular target: T2, human S1P3 receptor (Homo sapiens, UniProt Q99500); assay: In vitro functional activity (agonism) on human S1P3 receptors, CHO-human-S1P3-Aequorin assay; format: cell-based; details: CHO/Gα16/AEQ/h-S1P3 cells, luminescence, read-out: S1P3 pEC50 (converted)
T2 construct: cell line established at Solvay Pharmaceuticals; host or cells: CHO K1 (CHO/Gα16/AEQ/h-S1P3)
Excerpt: In Vitro Functional Activity (Agonism) on Human S1P3 Receptors
The CHO-human-S1P3-Aeqorin assay (CHO/Gα16/AEQ/h-S1P3) was established at Solvay Pharmaceuticals. The plasmid DNA coding for the S1P3 receptor (accession number in GenBank NM_005226 was purchased from UMR cDNA resource Centre (Rolla, Mo.). The pcDNA3.1/hS1P3 construct carrying the mitochondrially targeted apo-Aeqorin and Gα16 protein was transfected in CHO K1 cell-line.
as §1, with “Human-S1P3-Aequorin” for “The CHO-human-S1P5-Aecorin assay was bought from Euroscreen, Brussels (Euroscreen, Technical dossier, Human Lysophospholid S1P5 (Edg8) receptor, DNA clone and CHO AequoScreen™ recombinant cell-line, catalog no: ES-593-A, September 2006). Human-S1P5-Aequorin”, “S1P3” for “S1P5”

human S1P1 = molecular target: T3, human S1P1 (Homo sapiens, UniProt P21453); assay: In vitro functional activity (agonism) on human S1P1 receptors, CHO-K1-Human S1P1-c-AMP assay; format: cell-based; details: CHO-K1 cells expressing human S1P1, cAMP with Forskolin (HTRF), read-out: S1P1 pEC50 (converted)
T3 construct: host or cells: CHO-K1
Protocol: In Vitro Functional Activity (Agonism) on Human S1P1 Receptors
The CHO-K1-Human S1P1-c-AMP assay was performed at Euroscreenfast, Brussels (Euroscreen, Human S1P1 coupling […] (Edg1) receptor, catalog no: FAST-0197C, December 2009).
Recombinant CHO-K1 cells expressing human S1P1, grown to mid-log Phase in culture media without antibiotics, detached, centrifuged and re-suspended. For agonist testing cells are mixed with compound and Forskolin and incubated at room temperature. Cells are lyses and cAMP concentration are estimated, according to the manufacturer specification, With the HTRF kit from CIS-BIO International (cat n° 62AM2PEB).
Agonistic effects of compounds are expressed as a percentage of the activity of the reference compound at its EC100 concentration, EC50 is calculated and results are reported as pEC50. Compounds were tested at a 10 points half log concentration range duplicated in 1 experiment.

T2 sequence (Q99500 whole entry): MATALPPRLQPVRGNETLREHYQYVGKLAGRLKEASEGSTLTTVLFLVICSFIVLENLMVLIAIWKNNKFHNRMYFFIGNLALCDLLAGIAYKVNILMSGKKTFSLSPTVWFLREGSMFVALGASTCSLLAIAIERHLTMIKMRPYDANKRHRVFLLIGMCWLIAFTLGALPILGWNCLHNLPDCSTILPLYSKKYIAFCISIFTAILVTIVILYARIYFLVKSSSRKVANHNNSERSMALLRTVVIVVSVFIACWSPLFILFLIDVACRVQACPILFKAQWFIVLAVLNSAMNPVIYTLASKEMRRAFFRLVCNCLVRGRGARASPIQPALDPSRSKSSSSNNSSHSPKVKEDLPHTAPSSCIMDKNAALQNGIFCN
T1 sequence (Q9H228 whole entry): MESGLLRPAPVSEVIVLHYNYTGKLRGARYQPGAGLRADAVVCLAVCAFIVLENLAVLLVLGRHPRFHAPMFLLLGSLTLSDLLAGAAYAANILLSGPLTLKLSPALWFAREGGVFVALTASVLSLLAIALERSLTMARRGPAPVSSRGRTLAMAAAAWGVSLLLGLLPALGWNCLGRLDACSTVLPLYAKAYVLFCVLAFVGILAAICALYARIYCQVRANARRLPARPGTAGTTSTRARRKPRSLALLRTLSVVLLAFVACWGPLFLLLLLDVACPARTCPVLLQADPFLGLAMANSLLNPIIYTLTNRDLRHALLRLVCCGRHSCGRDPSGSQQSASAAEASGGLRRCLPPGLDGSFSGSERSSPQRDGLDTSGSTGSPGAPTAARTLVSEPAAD
T3 sequence (P21453 whole entry): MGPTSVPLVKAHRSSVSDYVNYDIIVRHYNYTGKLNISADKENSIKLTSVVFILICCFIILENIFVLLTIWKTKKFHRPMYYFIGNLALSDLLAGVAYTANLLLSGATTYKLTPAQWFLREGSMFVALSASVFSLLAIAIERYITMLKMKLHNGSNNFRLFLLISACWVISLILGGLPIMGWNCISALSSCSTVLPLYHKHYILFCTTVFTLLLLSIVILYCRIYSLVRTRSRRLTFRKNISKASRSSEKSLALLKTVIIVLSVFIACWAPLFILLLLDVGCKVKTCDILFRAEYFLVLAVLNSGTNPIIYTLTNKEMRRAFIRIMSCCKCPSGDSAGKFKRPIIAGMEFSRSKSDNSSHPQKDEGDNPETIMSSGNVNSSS

| Compound | melting point [°C] | EC50 (human S1P5 receptor) [nM] | EC50 (human S1P3 receptor) [nM] | EC50 (human S1P1) [nM] |
| --- | --- | --- | --- | --- |
| Cl.O=C(O)CCN1CCOC(c2ccc(Oc3c(Cl)cccc3Cl)c(Cl)c2)C1 (centres unmarked) | 224 to 227 |  |  |  |
| Cl.O=C(O)CCN1CCOC(c2ccc(Oc3c(Cl)cccc3Cl)cc2F)C1 (centres unmarked) | 207 to 209 |  |  |  |
| Cl.O=C(O)CCN1CCOC(c2ccc(Oc3c(Cl)cccc3Cl)cc2C(F)(F)F)C1 (centres unmarked) | 135 to 136 |  |  |  |
| Cl.O=C(O)CCN1CCSC(c2ccc(Oc3ccccc3Cl)cc2)C1 (centres unmarked) | 155 to 160 |  |  |  |
| Cc1cccc(Oc2ccc(C3CN(CCC(=O)O)CCS3)cc2)c1C.Cl (centres unmarked) | 178 to 183 |  |  |  |
| Cc1cccc(Cl)c1Oc1ccc(C2CN(CCC(=O)O)CCS2)cc1.Cl (centres unmarked) | 192.5 to 195 |  |  |  |
| Cc1cccc(C)c1Oc1cccc(C2CN(CCC(=O)O)CCO2)c1 (centres unmarked) (as salt: hydrochloride) | 219 to 223 |  |  |  |
| Cc1cccc(Oc2ccc(C3CN(CCCC(=O)O)CCO3)cc2)c1C (centres unmarked) (as salt: hydrochloride) [Compound 87, 4-{2-[4-(2,3-Dimethyl-phenoxy)-phenyl]-morpholin-4-yl}-butyric acid hydrochloride] | 225 to 227 |  |  |  |
| Cc1cccc(C)c1Nc1ccc(C2CN(CCC(=O)O)CCO2)cc1 (centres unmarked) [Compound 2, 3-{2-[4-(2,6-Dimethyl-phenylamino)-phenyl]-morpholin-4-yl}-propionic acid hydrochloride] |  | 631 | > 10000 |  |
| O=C(O)CCN1CCOC(c2ccc(C(=O)c3c(Cl)cccc3Cl)cc2)C1 (centres unmarked) [Compound 6, 3-{2-[4-(2,6-Dichloro-benzoyl)-phenyl]-morpholin-4-yl}-propionic acid hydrochloride] |  | 501 | > 10000 | > 3160 |
| Cc1ccc(Oc2ccc(C3CN(CCC(=O)O)CCO3)cc2)cc1Cl (centres unmarked) [Compound 15, 3-{2-[4-(3-Chloro-4-methyl-phenoxy)-phenyl]-morpholin-4-yl}-propionic acid hydrochloride] |  | 501 | > 10000 |  |
| CCCCc1ccc(Oc2ccc(C3CN(CCC(=O)O)CCO3)cc2)cc1 (centres unmarked) [Compound 26, 3-{2-[4-(4-Butyl-phenoxy)-phenyl]-morpholin-4-yl}-propionic acid hydrochloride] |  | 2000 | 5010 |  |
| O=C(O)CCN1CCOC(c2ccc(Oc3cccc4ccccc34)cc2)C1 (centres unmarked) [Compound 29, 3-{2-[4-(Naphthalen-1-yloxy)-phenyl]-morpholin-4-yl}-propionic acid hydrochloride] |  | 63.1 | > 10000 |  |
| O=C(O)CCN1CCOC(c2ccc(Oc3ccccc3C(F)(F)F)cc2)C1 (centres unmarked) [Compound 35, 3-{2-[4-(2-Trifluoromethyl-phenoxy)-phenyl]-morpholin-4-yl}-propionic acid hydrochloride] |  | 200 | > 10000 |  |
| Cc1ccc(Oc2ccc(C3CN(CCC(=O)O)CCO3)cc2)cc1C (centres unmarked) [Compound 47, 3-{2-[4-(3,4-Dimethyl-phenoxy)-phenyl]-morpholin-4-yl}-propionic acid hydrochloride] |  | 200 | > 10000 |  |
| O=C(O)CCN1CCOC(c2ccc(Oc3ccc(OCc4ccccc4)cc3)cc2)C1 (centres unmarked) [Compound 57, 3-{2-[4-(4-Benzyloxy-phenoxy)-phenyl]-morpholin-4-yl}-propionic acid hydrochloride] |  | 2000 | > 10000 |  |
| Cc1ccc(Oc2ccc(C3CN(CCC(=O)O)CCO3)cc2)cc1 (centres unmarked) [Compound 64, 3-[2-(4-p-Tolyloxy-phenyl)-morpholin-4-yl]-propionic acid hydrochloride] |  | 1580 | > 10000 |  |
| O=C(O)CCN1CCOC(c2ccc(Oc3ccc4ccccc4c3)cc2)C1 (centres unmarked) [Compound 68, 3-{2-[4-(Naphthalen-2-yloxy)-phenyl]-morpholin-4-yl}-propionic acid hydrochloride] |  | 631 | > 10000 |  |
| CC1(C)CN(CCC(=O)O)CC(c2ccc(Oc3c(Cl)cccc3Cl)cc2)O1 (centres unmarked) [Compound 73, 3-{6-[4-(2,6-Dichloro-phenoxy)-phenyl]-2,2-dimethyl-morpholin-4-yl}-propionic acid] |  | 158 |  | > 3160 |
| Cc1cccc(Oc2ccc(C3(C)CN(CCC(=O)O)CCO3)cc2)c1C (centres unmarked) [Compound 80, 3-{2-[4-(2,3-Dimethyl-phenoxy)-phenyl]-2-methyl-morpholin-4-yl}-propionic acid hydrochloride] |  | 631 | > 10000 | > 31600 |
| Cc1cccc(Oc2ccc(C3CN(CCCC(=O)O)CCO3)cc2)c1C (centres unmarked) [Compound 87, 4-{2-[4-(2,3-Dimethyl-phenoxy)-phenyl]-morpholin-4-yl}-butyric acid hydrochloride] |  | 1000 |  |  |
